Values quoted from earlier work as cited in patent publication US20060088904A1, “Methods for the synthesis of astaxanthin” (priority 2004, published 2006).

Tests used:
[1] = system: peroxyl radical chain reaction in liposome systems; conditions: appropriate dose
[2] = system: transformed cells as well as normal prostatic epithelium; conditions: cultured human cells; alone and/or in combination with other antioxidants (e.g. vitamin E)
[3] = system: cigarette-smoke induced lung pathology; conditions: ferret

SMILES | suppression of peroxyl radical chain reaction [1] | growth inhibition [2] | protection against cigarette-smoke induced lung pathology [3]
CC1=C(/C=C/C(C)=C/C=C/C(C)=C/C=C/C=C(C)/C=C/C=C(C)/C=C/C2=C(C)C(=O)C(O)CC2(C)C)C(C)(C)CC(O)C1=O (stereo not drawn) [astaxanthin] | completely suppress | – | –
CC(C)=CCC/C(C)=C/C=C/C(C)=C/C=C/C(C)=C/C=C/C=C(C)/C=C/C=C(C)/C=C/C=C(\C)CCC=C(C)C [lycopene] | – | growth inhibitory | protective
